Assay results from patent publication US10406227B2, “Photoactivated molecules for light-induced modulation of the activity of electrically excitable cells and methods of using same” (University of Southern California, priority 2012, dated 2019).

Tested on: HEK293T cells
Assay: Voltage-clamp membrane current during illumination
Format: cell-based, human
Details: voltage-clamp at approximately −80 mV
Protocol: To examine whether light-activated RubpyC17 can directly interact and open or block endogenous ion channels, HEK293T cells were preincubated with RubpyC17, and patch-clamped in a voltage-clamp configuration. Voltage-clamp configuration allowed the cells to be clamped at a potential where most voltage-gated ion channels are closed (approximately −80 mV). […] The current-voltage relationship (FIGS. 5C, D) as well as the steady-state voltage-dependent activation curves of RubpyC17-treated chromaffin cells in voltage-clamp mode before and during light illumination (FIG. 5E).

Q: How did the “light-induced changes in membrane current” value turn out when [Ru(bpy)2(bpy-C17)](PF6)2 [RubpyC17] was run?
A: The value was “did not exhibit light-induced changes in membrane current”.
